Values quoted from earlier work in patent US7956212B2 (XenoPort, Inc., priority 2004, dated 2011).

Legend:
[1] = following oral administration
[2] = rats
[3] = patients, administered alone

CC(C)(C)C(=O)Oc1ccc(C[C@H](N)C(=O)O)cc1O [NB-355]
levels of levodopa [1]: low

C[C@@](Cc1ccc(O)c(O)c1)(NN)C(=O)O [carbidopa]
absorption following rectal administration [2]: poor

N[C@@H](Cc1ccc(O)c(O)c1)C(=O)O [levodopa, L-3,4-dihydroxyphenylalanine]
half-life of levodopa in plasma [3]: about 50 min
